# Measured values from PMC2690590, “Functional recombinant MHC class II molecules and high-throughput peptide-binding assays” (Immunome Research, 2009).
# Where two headings read alike, the source gives them in different places. Where no end group is shown, it is not given here.
# Experiments:
# I-E^d = molecular target: T1, I-E^d (Mus musculus, UniProt P01904+P01915); assay: Direct LOCI peptide-MHC-II binding assay, I-E^d
# T1 construct: I-E^dA1-191LZFos; I-E^dB1-198LZJunBSP; made in house
# [1] = molecular target: T2, DR2a (DRA*0101/DRB5*0101) (Homo sapiens, UniProt P01903+Q30154); assay: Direct LOCI peptide-MHC-II binding assay, DR2a
# T2 construct: DRA*01011-181LZFos; DRB5*01011-190LZJunBSP; made in house
# [2] = molecular target: T3, DRB3*0301 (DRA*0101/DRB3*0301) (Homo sapiens, UniProt P01903+P79483, A169T/A212P/D57E/G115V/L67V/Q178H/R103Q/R40L/Y55F); assay: Direct LOCI peptide-MHC-II binding assay, DRB3*0301
# T3 construct: DRA*01011-181LZFos; DRB3*03011-190LZJunBSP; made in house
# DR3 (DRA*0101/DRB1*0301) = molecular target: T4, DR3 (DRA*0101/DRB1*0301) (Homo sapiens, UniProt P01903+P01911, A100K/A102G/A103R/A169T/F55Y/I96L/K41T/L162R/M171V/P40S/Q125H/Q178H/Q39Y/R42S/S66N/T106N/T262R/W38E/Y61H); assay: Direct LOCI peptide-MHC-II binding assay, DR3
# T4 construct: DRA*01011-181LZFos; DRB1*03011-190LZJunBSP; made in house
# [3] = molecular target: DP401 (DPA1*0103/DPB1*0401) (Homo sapiens, UniProt P04440+P20036); assay: Direct LOCI peptide-MHC-II binding assay, DP401
# DR4 (DRA*0101/DRB1*0401) = molecular target: T5, DR4 (DRA*0101/DRB1*0401) (Homo sapiens, UniProt P01903+P01911, A100K/A169T/F76Y/I96L/K127E/L162R/M171V/N62H/P40V/Q125Y/R42H/S133A/S149N/S66Y/V115G/V209L/W38E); assay: Direct LOCI peptide-MHC-II binding assay, DR4
# T5 construct: DRA*01011-181LZFos; DRB1*04011-190LZJunBSP; made in house
# [4] = molecular target: T2, DR2a (DRA*0101/DRB5*0101); assay: Competitive LOCI peptide-MHC-II binding assay, DR2a
# [5] = molecular target: T6, DRB1*0813 (DRA*0101/DRB1*0813) (Homo sapiens, UniProt P01903+P01911, A100R/A103L/A169T/F76Y/H45Y/I96L/K41T/L162R/M171V/P40S/Q125H/Q178H/Q39Y/Q99D/R218S/R42G/S66Y/V115G/W38E); assay: Direct LOCI peptide-MHC-II binding assay, DRB1*0813
# T6 construct: DRA*01011-181LZFos; DRB1*08131-190LZJunBSP; made in house
# [6] = 48 h 18°C, read-out: I-E^D affinity
# [7] = pH 6, 48 h 18°C, read-out: DR2a pH6 affinity
# [8] = pH 7, 48 h 18°C, read-out: DRB3*0301 affinity
# [9] = pH 6-7, 48 h 18°C, read-out: DR3 affinity
# [10] = pH 7, 48 h 18°C, read-out: DP401 affinity
# [11] = pH 6-7.5, 48 h 18°C, read-out: DR2a Komp IC50
# [12] = pH 6-7.5, 48 h 18°C, read-out: DRB1*0813 affinity
Compound,Kd (I-E^d; I-E^D affinity (nM)),Kd [1],Kd [2],Kd (DR3 (DRA*0101/DRB1*0301)),Kd ([3]; DP401 affinity (nM)),Kd (DR4 (DRA*0101/DRB1*0401); DR4 affinity (nM)),IC50 ([4]; DR2a Komp IC50 (nM)),Kd [5],Kd (I-E^d),Kd [3],also measured
FLIDLAFLI [Pox.o42.con A2],,,,,,,,,,,"Kd (I-E^d; [6]): > 5000 nM; Kd [1, 7]: > 5000 nM; Kd [2, 8]: > 5000 nM; Kd (DR3 (DRA*0101/DRB1*0301); [9]): > 5000 nM; Kd [3, 10]: 179 nM; Kd (DR4 (DRA*0101/DRB1*0401); pH 6-7.5, 48 h 18°C, read-out: DR4 affinity): > 5000 nM; IC50 [4, 11]: 4280 nM; Kd [5, 12]: > 5000 nM"
IQMLKNGKKIPKVEMS [Murine β2m],117 nM,6 nM,70 nM,21 nM,> 5000 nM,> 5000 nM,3 nM,73 nM,,,
HHHHHHIEGRFAALWFRNHFVFGGGTK [6xH Lambda 2(315)],26 nM,5 nM,1200 nM,882 nM,2 nM,11 nM,20 nM,8 nM,,,
CC(C)C[C@H](NC(=O)CNC(=O)[C@H](Cc1c[nH]c2ccccc12)NC(=O)CNC(=O)[C@@H](NC(=O)[C@@H]1CCCN1C(=O)[C@@H](NC(=O)[C@H](C)NC(=O)[C@H](CC(=O)O)NC(=O)[C@H](C)NC(=O)[C@H](Cc1ccccc1)NC(=O)[C@@H](NC(=O)[C@H](CCC(N)=O)NC(=O)[C@H](CS)NC(=O)[C@H](CC(C)C)NC(=O)[C@@H](N)Cc1ccc(O)cc1)C(C)C)[C@@H](C)O)[C@@H](C)O)C(=O)O,,3700 nM,2060 nM,69 nM,,,,2990 nM,> 5000 nM,13 nM,Kd (DR4 (DRA*0101/DRB1*0401)): 18 nM; IC50 [4]: > 5000 nM
CC[C@H](C)[C@H](NC(=O)[C@@H](N)Cc1ccc(O)cc1)C(=O)N[C@@H](CC(=O)O)C(=O)N[C@H](C(=O)N[C@@H](Cc1c[nH]c2ccccc12)C(=O)N[C@@H](CC(C)C)C(=O)NCC(=O)NCC(=O)N[C@@H](CC(C)C)C(=O)N[C@@H](C)C(=O)N[C@@H](CCC(=O)O)C(=O)N[C@@H](CC(N)=O)C(=O)N[C@@H](Cc1ccccc1)C(=O)N[C@@H](CC(C)C)C(=O)N1CCC[C@H]1C(=O)N[C@@H](Cc1ccc(O)cc1)C(=O)O)C(C)C [Thyroid peroxidase],> 5000 nM,2140 nM,3180 nM,> 5000 nM,602 nM,> 5000 nM,691 nM,> 5000 nM,,,
CC[C@H](C)[C@H](NC(=O)CNC(=O)[C@@H](NC(=O)[C@H](Cc1ccccc1)NC(=O)[C@H](CCCCN)NC(=O)[C@H](CO)NC(=O)[C@H](CC(N)=O)NC(=O)[C@H](C)NC(=O)[C@H](CCCCN)NC(=O)[C@@H](NC(=O)[C@H](Cc1ccc(O)cc1)NC(=O)[C@@H](N)CCC(N)=O)[C@@H](C)CC)[C@@H](C)CC)C(=O)N[C@H](C(=O)N[C@@H](CCC(=O)O)C(=O)O)[C@@H](C)O [Clostridium tetanus],,,1 nM,,,,,,1500 nM,56 nM,
CSCC[C@H](NC(=O)[C@H](CCCNC(=N)N)NC(=O)[C@H](CCSC)NC(=O)[C@H](CCCCN)NC(=O)[C@H](CO)NC(=O)[C@@H](NC(=O)[C@@H]1CCCN1C(=O)[C@H](CCCCN)NC(=O)[C@@H]1CCCN1C(=O)[C@@H]1CCCN1C(=O)[C@H](CCCCN)NC(=O)[C@@H]1CCCN1C(=O)[C@@H](N)CC(C)C)C(C)C)C(=O)N[C@@H](C)C(=O)N[C@H](C(=O)N1CCC[C@H]1C(=O)N[C@@H](CC(C)C)C(=O)N[C@@H](CC(C)C)C(=O)N[C@@H](CCSC)C(=O)N[C@@H](CCC(N)=O)C(=O)N[C@@H](C)C(=O)N[C@@H](CC(C)C)C(=O)N1CCC[C@H]1C(=O)N[C@@H](CCSC)C(=O)N[C@@H](Cc1ccc(O)cc1)C(=O)N[C@@H](Cc1c[nH]cn1)C(=O)N[C@@H](Cc1c[nH]cn1)C(=O)N[C@@H](Cc1c[nH]cn1)C(=O)N[C@@H](Cc1c[nH]cn1)C(=O)N[C@@H](Cc1c[nH]cn1)C(=O)N[C@@H](Cc1c[nH]cn1)C(=O)O)[C@@H](C)O [CLIP 6xH],,,,,,,,,,,"Kd ([1]; read-out: DR2a pH6 affinity): 1 nM; Kd ([2]; read-out: DRB3*0301 affinity): 1 nM; Kd (DR3 (DRA*0101/DRB1*0301); read-out: DR3 affinity): 1 nM; Kd ([3]; read-out: DP401 affinity): 1 nM; Kd (DR4 (DRA*0101/DRB1*0401); read-out: DR4 affinity): 1 nM; IC50 ([4]; competitive LOCI, 4 nM biotin-PEG-HA306–318 agonist, β chain without biotin, α/β 13/5 nM, pH 6-7.5, L243, 48 h 18°C, average of 2–4 measurements, read-out: DR2a Komp IC50): 1 nM; Kd ([5]; read-out: DRB1*0813 affinity): 2 nM"
PLKAEIAQRLEDV [Influenza],,65 nM,11 nM,134 nM,,,,> 5000 nM,> 5000 nM,2090 nM,Kd (DR4 (DRA*0101/DRB1*0401)): 2680 nM; IC50 [4]: 41 nM
YILFLVKMNALRRLPV,,,,,,,,,,,"Kd (I-E^d; [6]): 582 nM; Kd [1, 7]: 5 nM; Kd [2, 8]: 3 nM; Kd (DR3 (DRA*0101/DRB1*0301); [9]): 39 nM; Kd [3, 10]: 45 nM; IC50 [4, 11]: 20 nM; Kd [5, 12]: 78 nM"
